Test [1] has as its system LTB4 production by calcium ionophore-stimulated murine blood. As to the kind of experiment: LTB4 production by calcium ionophore-stimulated murine blood for LTA4H inhibitor activity. The conditions noted are these: Mus musculus; murine blood diluted 1 in 15, calcium ionophore A23187, LTB4 by immunoassay; read-out: IC50. The test is classed as cell-based, CD-1 mice. The gist of the method: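 LTB4 quantified by EIA in supernatants after murine (CD-1) heparinized whole blood was exposed to compound for 15 min, then to 7 μg/mL (final) A23187 for 30 min, all at 37° C. Reported values: single runs or means; three or more runs include SD.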

Test [2] has as its system ex vivo stimulated LTB4 production. As to the kind of experiment: Murine arachidonic acid-induced inflammation model: ex vivo stimulated LTB4 production (% Inh. LTB4). The settings on record: Mus musculus; female Balb/c mice, 30 mg/kg oral gavage; blood taken 3 h after arachidonic acid, ex vivo A23187 stimulation; number of determinations in parentheses. Here is the method:
(§1) Assay 4: Murine Arachidonic Acid-Induced Inflammation Model
(§2) LTA4H inhibitor compounds of the present invention were dissolved in 20% cyclodextran/H2O at a concentration of 3 mg/mL. The solutions were administered by oral gavage to female Balb/c mice weighing approximately 20 grams each (0.2 mL per mouse, 30 mg of LTA4H inhibitor compound per kg). Sixty minutes after being administered an LTA4 inhibitor, each mouse received topical application of 20 μL of arachidonic acid (100 mg/mL in acetone) to the left ear and 20 μL of acetone only to the right ear. After 3 h, the mice were sacrificed, blood was withdrawn in heparinized syringes, and 8 mm ear biopsies were taken. Ear biopsies were weighed to determine edema and then frozen at −80° C. until needed for determination of neutrophil influx.
One hundred-microliter aliquots of heparinized blood were added to wells of a microtiter plate, along with equal volumes of RPMI-1640 medium, and calcium ionophore A23187 was added to each sample well (final concentration=[…]). The microtiter plate contents were incubated for 30 min at 37° C. in a humidified incubator. The reaction was terminated by centrifugation (833×g, 10 min at 4° C.). Supernatants were analyzed for LTB4 by a commercially available enzyme-linked immunoassay (Cayman Chemical Co.) in accordance with the manufacturer's instructions. The percent inhibition of ex vivo stimulated LTB4 production (% Inh. LTB4) was determined by comparison to animals treated identically except that the solution administered by oral gavage was devoid of inhibitor compound.
(§3) The number of determinations is indicated in parentheses following each value

The test system of another test is neutrophil influx. As to the kind of experiment: Murine arachidonic acid-induced inflammation model: neutrophil influx in ear, myeloperoxidase activity (% Inh. MPO). The test is classed as in vivo. The conditions noted are these: Mus musculus, female Balb/c mice, 30 mg/kg oral gavage, ear biopsy 3 h after topical arachidonic acid, number of determinations in parentheses. The method, then:
as §1, §2
Neutrophil influx was quantified by measuring the activity of myeloperoxidase (MPO), a neutrophil-specific enzyme. The ear biopsies were homogenized in 0.5 mL extraction buffer (0.3 M sucrose, 0.22% (w/v) hexadecyl trimethyl ammonium bromide (CTAB), and 2.5 mM citrate prepared from 0.5 M citrate stock solution (pH 5.0)), in a Fast-Prep-24 (MP™) (40 seconds at 6 mps). Debris was removed by centrifugation at 14000×g for 10 min. Aliquots of 10 μL of the resulting supernatant were added to wells of a microtiter plate, along with 90-μL aliquots of dilution buffer (10 mM citrate, 0.22% CTAB), followed by addition of 20 μL TMB liquid substrate system (Sigma Chemical Co.) to each sample well. The microtiter plate contents were held at room temperature until the sample with the highest concentration of MPO reached an absorbance value of 0.4 at 650 nm. The reaction was stopped by addition of 50 μL 1 M H2SO4 to each sample well, and the myeloperoxidase activity in each sample was determined from the absorbance at 405 nm. The background value from the right ear, treated only with acetone, was subtracted from that for the left ear, treated with arachidonic acid in acetone, for each animal. The percent inhibition of neutrophil influx (% Inh. MPO) by compounds of the invention was determined by comparison to animals treated identically, except that the solution administered by oral gavage was devoid of inhibitor compound.
as §3

The target in test [3] is T1, recombinant human LTA4 hydrolase (rhLTA4H) (Homo sapiens, UniProt P09960).
T1 construct: made in house; host or cells: Spodoptera frugiperda (Sf-9) cells, recombinant baculovirus (pFastBac1)
T1 sequence (P09960 1-611): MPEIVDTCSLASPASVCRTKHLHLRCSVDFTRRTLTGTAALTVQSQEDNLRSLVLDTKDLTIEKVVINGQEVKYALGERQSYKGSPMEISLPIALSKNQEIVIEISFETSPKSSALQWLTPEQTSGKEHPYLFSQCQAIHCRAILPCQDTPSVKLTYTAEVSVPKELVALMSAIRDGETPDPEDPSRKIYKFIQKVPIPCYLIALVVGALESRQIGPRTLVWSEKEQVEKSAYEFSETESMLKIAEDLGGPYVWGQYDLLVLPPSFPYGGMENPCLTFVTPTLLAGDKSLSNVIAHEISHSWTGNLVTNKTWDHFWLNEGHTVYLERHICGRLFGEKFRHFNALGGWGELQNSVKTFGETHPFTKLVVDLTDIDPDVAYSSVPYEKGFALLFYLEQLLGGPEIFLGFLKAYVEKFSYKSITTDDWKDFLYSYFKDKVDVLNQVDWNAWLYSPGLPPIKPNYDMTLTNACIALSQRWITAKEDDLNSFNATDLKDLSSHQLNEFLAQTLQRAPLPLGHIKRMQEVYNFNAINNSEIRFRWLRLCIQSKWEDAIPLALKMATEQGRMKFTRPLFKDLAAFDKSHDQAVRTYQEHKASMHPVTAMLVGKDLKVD
As to the kind of experiment: Recombinant human LTA4 hydrolase assay for LTA4 hydrolase inhibitor activity. It counts as biochemical. The settings on record: rhLTA4H, LTA4 substrate, LTB4 by immunoassay; single determination or average; read-out: IC50. A digest of the protocol: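 LTB4 formed from LTA4 substrate (free acid from the methyl ester) was quantified by enzyme immunoassay after a 30 min rt reaction. Enzyme was 10 ng Sf-9-expressed human LTA4 hydrolase, pre-incubated 10 min with compound.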

The structures appear in SMILES notation. pIC50: −log10 of the molar value.

In general, pIC50 refers to −log10 of the IC50, conventionally taken in molar units. By inhibition is commonly meant the change of the read-out against control, counted positive when it falls. Broadly, the inhibition in vivo is the share of the control response that was lost under treatment.

For `CC(=O)N[C@H]1C[C@H]2CC[C@@H](C1)N2CCOc1ccc(Oc2nc3ncccc3s2)cc1` [Example 16, meso-N-[(3-endo)-8-{2-[4-([1,3]Thiazolo[4,5-b]pyridin-2-yloxy)phenoxy]ethyl}-8-azabicyclo[3.2.1]oct-3-yl]acetamide], the values for the negative-log IC50 (pIC50) in test [1] and in test [3] were 7.59 and 8.52, respectively. Also, the inhibition at 30 mg/kg in test [2] was found to be 84.6%. The inhibition in vivo at 30 mg/kg with neutrophil influx is 73.6%.
As for `c1cnc2nc(Oc3ccc(CN4CCC(N5CCOCC5)CC4)cc3)sc2c1` [Example 257, 2-{4-[(4-Morpholin-4-ylpiperidin-1-yl)methyl]phenoxy}[1,3]thiazolo[4,5-b]pyridine], the pIC50 in test [1] is 7.01; in test [3], 7.54. The inhibition at 30 mg/kg in test [2] was determined as 86%. In the test with neutrophil influx, the inhibition in vivo at 30 mg/kg was determined as 70.5%.
`CC(=O)N[C@H]1C[C@H]2CC[C@@H](C1)N2CCc1ccc(Oc2nc3cccnc3s2)cc1` [Example 52, meso-N-[(3-endo)-8-{2-[4-([1,3]Thiazolo[5,4-b]pyridin-2-yloxy)phenyl]ethyl}-8-azabicyclo[3.2.1]oct-3-yl]acetamide]: the pIC50 is 7.89 in test [1] and 9.00 in test [3]. Further, the inhibition at 30 mg/kg in test [2] was found to be 78.3%. Besides, the inhibition in vivo at 30 mg/kg with neutrophil influx was 60.2%.
The like results for `NC(=O)C1CCN(Cc2ccc(Oc3nc4ncccc4s3)cc2)CC1` [Example 100, 1-[4-([1,3]Thiazolo[4,5-b]pyridin-2-yloxy)benzyl]piperidine-4-carboxamide] were, in that order, 6.96, 8.14, 85.3% and 88.7%.
With `c1cnc2nc(Oc3ccc(OCCN4CCCCC4)cc3)sc2c1` [Example 10, 2-[4-(2-Piperidin-1-ylethoxy)phenoxy][1,3]thiazolo[4,5-b]pyridine], the values for the pIC50 in test [1] and in test [3] were 7.72 and 8.30, respectively. In addition, in test [2], the inhibition at 30 mg/kg amounted to 68%. Besides, the inhibition in vivo at 30 mg/kg in the test with neutrophil influx came out at 62.2%.
On the same counts, the results for `CC(C)(O)C1CCN(Cc2ccc(Oc3nc4ncccc4s3)cc2)CC1` [Example 89, 2-{1-[4-([1,3]Thiazolo[4,5-b]pyridin-2-yloxy)benzyl]piperidin-4-yl}propan-2-ol] are 6.96, 7.38, 79.5% and 79.1%.
As for `CC(=O)N1CC2CN(Cc3ccc(Oc4nc5ncccc5s4)cc3)CC2C1` (stereo not shown) [Example 276, 2-{4-[(5-Acetylhexahydropyrrolo[3,4-c]pyrrol-2(1H)-yl)methyl]phenoxy}[1,3]thiazolo[4,5-b]pyridine], the pIC50 in test [1] was 8.00; in test [3] it was 8.52. For the same compound, the inhibition at 30 mg/kg in test [2] came out at 57.4%. Further, in the test on neutrophil influx, the inhibition in vivo at 30 mg/kg is 94.9%.
On the same counts, the results for `O=C1C[C@@H](O)CN1C1CCN(Cc2ccc(Oc3nc4ncccc4s3)cc2)CC1` [Example 269, (4R)-4-Hydroxy-1-{1-[4-([1,3]thiazolo[4,5-b]pyridin-2-yloxy)benzyl]piperidin-4-yl}pyrrolidin-2-one] are 7.11, 8.52, 84.4% and 90.6%.
For `CC(=O)N[C@@H]1C[C@H]2CC[C@@H](C1)N2CCOc1ccc(Oc2nc3ncccc3s2)cc1` [Example 17, meso-N-[(3-exo)-8-{2-[4-([1,3]Thiazolo[4,5-b]pyridin-2-yloxy)phenoxy]ethyl}-8-azabicyclo[3.2.1]oct-3-yl]acetamide], the pIC50 was 7.60 in test [1] and 8.70 in test [3]. Moreover, the inhibition at 30 mg/kg in test [2] stood at 81.5%. Also, the inhibition in vivo at 30 mg/kg with neutrophil influx was 63.4%.
Consider `O=C1C[C@@H](O)CN1C1CCN(CCOc2ccc(Oc3nc4ncccc4s3)cc2)CC1` [Example 270, (4R)-4-Hydroxy-1-(1-{2-[4-([1,3]thiazolo[4,5-b]pyridin-2-yloxy)phenoxy]ethyl}piperidin-4-yl)pyrrolidin-2-one], for which the pIC50 in test [1] is 6.92; in test [3] it was 8.00. Also, the inhibition at 30 mg/kg in test [2] turned out to be 75.9%. For the same compound, in the test with neutrophil influx, the inhibition in vivo at 30 mg/kg was 60.6%.
As to `c1cnc2nc(Oc3ccc(CN4CCOCC4)cc3)sc2c1` [Example 86, 2-[4-(Morpholin-4-ylmethyl)phenoxy][1,3]thiazolo[4,5-b]pyridine], the negative-log IC50 (pIC50) in test [1] is 7.22; in test [3] it was 7.92. In addition, the inhibition at 30 mg/kg in test [2] was determined as 70.8%. Further, the inhibition in vivo at 30 mg/kg with neutrophil influx came out at 51.5%.
`c1cnc2nc(Oc3ccc(CN4CCCC4)cc3)sc2c1` [Example 84, 2-[4-(Pyrrolidin-1-ylmethyl)phenoxy][1,3]thiazolo[4,5-b]pyridine]: the pIC50 was 7.41 in test [1] and 8.68 in test [3]. The inhibition at 30 mg/kg in test [2] came out at 53.9%. Besides, the inhibition in vivo at 30 mg/kg in the test on neutrophil influx came out at 72%.
Regarding `c1cnc2nc(Oc3ccc(CCN4CCOCC4)cc3)sc2c1` [Example 59, 2-[4-(2-Morpholin-4-ylethyl)phenoxy][1,3]thiazolo[4,5-b]pyridine], the pIC50 in test [1] is 7.72; in test [3], 8.05. For the same compound, the inhibition at 30 mg/kg in test [2] worked out at 92.7%. The inhibition in vivo at 30 mg/kg in the test on neutrophil influx worked out at 89.9%.
For `O=C1CCCN1C1CCN(CCc2ccc(Oc3nc4ncccc4s3)cc2)CC1` [Example 46, 1-(1-{2-[4-([1,3]Thiazolo[4,5-b]pyridin-2-yloxy)phenyl]ethyl}piperidin-4-yl)pyrrolidin-2-one], the pIC50 in test [1] is 6.89; in test [3], 7.89. Moreover, the inhibition at 30 mg/kg in test [2] was 86.5%. Also, the inhibition in vivo at 30 mg/kg in the test with neutrophil influx stood at 75.3%.
The like results for `NC(=O)N1C[C@H]2C[C@@H]1CN2CCc1ccc(Oc2nc3ncccc3s2)cc1` [Example 80, (1R,4R)-5-{2-[4-([1,3]Thiazolo[4,5-b]pyridin-2-yloxy)phenyl]ethyl}-2,5-diazabicyclo[2.2.1]heptane-2-carboxamide] were, in that order, 7.10, 8.70, 72.1% and 37%.
`CCN(CCO)CCc1ccc(Oc2nc3ncccc3s2)cc1` [Example 56, 2-(Ethyl{2-[4-([1,3]thiazolo[4,5-b]pyridin-2-yloxy)phenyl]ethyl}amino)ethanol]: the pIC50 in test [1] was 8.30; in test [3] it was 8.72. Further, the inhibition at 30 mg/kg in test [2] was 71.2%. Moreover, in the test on neutrophil influx, the inhibition in vivo at 30 mg/kg worked out at 81.6%.

Values taken from US20110190503A1, “Thiazolopyridin-2-yloxy-phenyl and thiazolopyrazin-2-yloxy-phenyl amines as modulators of leukotriene A4 hydrolase” (Janssen Pharmaceutical NV, priority 2008, published 2011).
